We go through eleven compounds from patent publication US8367801B2, “Proteinaceous compounds” (Endocrine Pharmaceuticals Limited, priority 2008, dated 2013).

Ends that are not written are not given here. Bounds are passed on as bounds.

Data set [1] relates to Caenorhabditis elegans. The format is in vivo. The conditions noted are these: for effect on lifespan / increase in fecundity (number of offspring): 1 μM in aqueous medium each day; for increase in fecundity (number of offspring): over lifespan. The text has this: (For methodology see Davies, K. G & Hart, J. E, Nematology, 10, 103-112, 2008).
The first six amino acids of the micrin peptide fragment of SEQ ID NO: 9 are MKPLTG (SEQ ID NO: 26). These have been synthesized as a 6 mer. […] Thus the fecundity-enhancing effect is retained even if 8 of the 14 amino acids are removed, potentially identifying an active motif. To optimise this 6 mer further, amino acid substitutions have been made, while retaining the proline at position 3.

Data set [2] relates to human umbilical vascular endothelial cells (HUVECs). The data set is described as follows: AngioKit angiogenesis assay, venule length. The class given is cell-based. To be noted: FIG. 6; suramin 20 μM; micrin sample T2. As to the method: Micrin and micrin free control samples were produced using the method described in Example 7.a with 120 ml sheep follicular fluid as the source material. These were diluted in AngioKit medium and stored at 4° C. for the duration of the assay. Samples were tested as follows: • 1) untreated control—medium alone • 2) positive control—medium containing 2 ng/ml VEGF • 3) negative control—medium containing 20 μM suramin (a potent inhibitor of angiogenesis) • 4) micrin-free control • 5) micrin test material
Comparison of venule length was conducted using the ‘Angiosys’ image analysis system developed specifically for the analysis of images produced using the AngioKit. Four images were taken from predetermined positions in the well containing each specimen. The results obtained with micrin are marked T2, those with micrin-free control T1.

The subject of data set [3] is human bone marrow stem cells. The data set is described as follows: Human bone marrow stem cell proliferation in vitro. The conditions noted are these: 1 μM in the medium, 24 h. The format is cell-based. The procedure: (§1) Micrin activity has been determined by means of a suitable in vitro assay, for example the breast cancer cell viability assay described above in Section 4 with reference to FIG. 4. A useful assay in support of molecular optimisation involves adult rat bone marrow stem cells in culture, with α-MEMS as cell medium and manual assessments of cell numbers and morphology using time-lapse video photography over 24 h. In one study, untreated control cells increased in number by 50%. An increase of just under 20% was also seen with the 14 mer peptide SEQ ID NO: 9, administered at 10 μg/ml of medium.
To investigate the stop growing aspect of the hypothesized micrin puberty signal, the proline-containing 6 mers have been administered to human bone marrow stem cells in an in vitro assay (see 6a), at a concentration in the medium of 1 μM.

Data set [4] concerns adult rat bone marrow stem cells. Briefly: Adult rat bone marrow stem cells in culture, cell numbers by time-lapse video over 24 h. The class given is cell-based. As to the method: Polyclonal antibodies were raised in the same manner using goats instead of rabbits, with Peptide 2 conjugated to KLH. The primary immunisation was followed by 8 boosters at monthly intervals, using standard techniques for the raising of polyclonal antibodies. Titre was established via immunohistochemistry, using rat and ovine median eminence tissue and the ability to block antibody with Peptide 1 was determined on histological sections. Specificity was tested using a range of hypothalamic peptides. […] 9, which consists of KVKEFNNI (SEQ ID NO. 21). Purification of the antibody using the peptide SEQ ID NO: 9 immobilised on a column enriches for antibody to the C-terminal epitope. The goat antibody has been used in connection with an assay based on adult rat bone marrow stem cells in culture, with α-MEMS as cell medium and manual assessments of cell numbers and morphology using time-lapse video photography over 24 h.
as §1

Data set [5] has as its system MCF 7 human breast cancer cells. Briefly: IGF1-stimulated cell growth, Coulter counter. The class given is cell-based. To be noted: IGF1 50 ng/ml, 72 hours. As to the method:
Experiments were conducted to assess the effects of a range of doses of the micrin peptide fragment with 20 amino acids (SEQ ID NO: 19) on the IGF1-stimulated growth of MCF 7 human breast cancer cells. Cells were plated at 2×10^4 per well in 2 cm^2 wells in Dulbecco's Modified Eagle's Medium containing 10% foetal calf serum, antibiotics and a stabilised substitute for glutamine (Glutamax, InVitrogen, UK). After an overnight culture period, the cells were washed with fresh medium and this was replaced with medium containing IGF1 (50 ng/ml) in the presence and absence of a range of concentrations (between 0.04 and 4000 nmol) of the peptide fragment in triplicate wells, and compared to triplicate wells containing medium only (with no supplementary IGF1) as controls. The cells were incubated for 72 hours in a humidified atmosphere at 37° C. under 5% carbon dioxide/95% air. The medium was discarded, and the cell layer washed with buffered saline before being incubated with trypsin/EDTA to dislodge the cells. The cell suspension was diluted with medium to stop the tryptic action and then transferred to tubes and subjected to centrifugation. The pellet was resuspended in Isoton and samples counted with a Coulter counter.

Another data set deals with human dental pulp cells. The data set is described as follows: Dental pulp cell proliferation (Cyquant). The format is cell-based. To be noted: for anti-proliferative activity: 5 μM in the cell medium, seeding 5.0×10^3 cells/ml.
In data set [6] the test system is ovine pituitary cells. The data set is described as follows: Prolactin production by pituitary cells in vitro, RIA. The format is cell-based. The procedure: Adult ewe pituitaries were collected into phosphate buffered saline (PBS) on ice. The external dura and neurohypophyseal tissue were removed and the remaining tissue was sliced thinly using tweezers and scalpel, and minced using crossed scalpel blades (<1 mm pieces). The mince was washed in 0.1% bovine serum albumen (BSA)/PBS. The tissue was allowed to settle and the liquid aspirated. The washing, settling and aspiration were repeated.
A standard cell dispersion was conducted by adding the tissue to a filtered solution of collagenase in BSA/PBS (0.02-0.03 g in 10 ml) plus Dnase, hyaluronidase, pancreatin and trypsin inhibitor and incubating in a shaking waterbath at 37° C. for 25 minutes. The resultant suspension was titurated with a pipette and returned to the shaking waterbath for 5 minutes. The suspension was titurated again and filtered through a mesh, washing with BSA/PBS. The suspension was added to a 50 ml centrifuge tube and spun at 1500 rpm for 5 minutes. The supernatant was removed and the cell pellet resuspended in 50 ml BSA/PBS.
A sample of the cell suspension (50 μl) was mixed 1:1 with trypan blue in a microcentrifuge tube and viable cells were counted on a haemocytometer, to give viable cell concentration.
The cell suspension was recentrifuged and resuspended in 3-5 ml of M199. […]

The test system of data set [7] is ovine pituitary cells. The data set is described as follows: LH secretion by pituitary cells in vitro. The format is cell-based. To be noted: 24 h, 0.1-10 μg/L, dose dependent, vs scrambled peptide, data not shown. The procedure:
Both effects are dependent on dose across the range used, 0.1-10 μg/L, and are statistically significant. Comparison was with a control peptide having the same amino acids in a randomly scrambled sequence (data not shown)

In data set [8] the test system is compensatory renal growth. To be noted: procedures as in 7c; Haylor et al 2009; cited from earlier work.
Data set [9] concerns Caenorhabditis elegans. The conditions noted are these: Davies & Hart, Nematology 2008; cited from earlier work.

Take “fluorescently tagged version of the micrin peptide fragment: fluorescently tagged version of the micrin peptide fragment SEQ ID NO: 9 (MKPLTGKVKEFNNI; also: fluorescent tag, position not given here)”: the tissue accumulation entry in the data set with Caenorhabditis elegans [1] (in vivo) is “accumulate preferentially in genital tissue”.
With `Cc1ccc(C(=O)Nc2ccc(S(=O)(=O)O)c3cc(S(=O)(=O)O)cc(S(=O)(=O)O)c23)cc1NC(=O)c1cccc(NC(=O)Nc2cccc(C(=O)Nc3cc(C(=O)Nc4ccc(S(=O)(=O)O)c5cc(S(=O)(=O)O)cc(S(=O)(=O)O)c45)ccc3C)c2)c1` [Suramin, suramin], in data set [2], the HUVEC venule length result is “statistically significant decrease in HUVEC venule length”.
For the compound LQPAHV, in the data set with Caenorhabditis elegans [1], the effect on lifespan entry is reported as “significantly to prolong lifespan” and the “increase in fecundity (number of offspring)” value (shortened to “increase in fecundity”) came to 71%. Moreover, in data set [3], the “ascending order of anti-proliferative activity” value (“ascending order” below) was “IEPVFT (SEQ ID NO: 30)<MKPLTG (SEQ ID NO. 26)<LEPVMT (SEQ ID NO: 31)<LQPAHV (SEQ ID NO: 27)” and the “reduction of cell numbers” value is “about 32%”.
As for MKPLTGKVKEFNNIKGFGVI [SEQ ID NO: 19], the “reduction in cell numbers” value in data set [4] (24 h, due to apoptosis) is “about 80%”. The “cell count compared to IGF1 alone” value in [5] (0.04 nmol peptide) is “noticably decreases the cell count”. In addition, the “cell count compared to controls” value in [5] (40 nmol peptide) was “reduces the cell count to below that in the controls”. The “effect on IGF1-stimulated cell growth” value in [5] (0.04-4000 nmol, FIG. 7) is “suppresses the effect of IGF1 in a dose-dependent manner”.
For “1KPLTGKVKEFNNI [SEQ ID NO:1, 14 mer wherein 1 is S, D or M]”, the anti-proliferative activity result in the data set on human dental pulp cells is recorded as “more so”.
For the compound IEPVFT, in the data set on Caenorhabditis elegans [1], the effect on lifespan result is given as “without having a significant effect on lifespan” and the “increase in fecundity” value is listed as 79%. Moreover, in data set [3], the “ascending order” value is listed as “IEPVFT (SEQ ID NO: 30)<MKPLTG (SEQ ID NO. 26)<LEPVMT (SEQ ID NO: 31)<LQPAHV (SEQ ID NO: 27)”.
Turning to MKPLTG, in the data set on Caenorhabditis elegans [1], the effect on lifespan entry was “without altering lifespan” and the “increase in fecundity” value was 50%. In addition, the “ascending order” value in data set [3] is recorded as “IEPVFT (SEQ ID NO: 30)<MKPLTG (SEQ ID NO. 26)<LEPVMT (SEQ ID NO: 31)<LQPAHV (SEQ ID NO: 27)”. Moreover, the anti-proliferative activity entry in the data set with human dental pulp cells is on record as “minimally anti-proliferative”.
As for LEPVMT, the “ascending order” value in data set [3] is recorded as “IEPVFT (SEQ ID NO: 30)<MKPLTG (SEQ ID NO. 26)<LEPVMT (SEQ ID NO: 31)<LQPAHV (SEQ ID NO: 27)”.
With KVKEFNNI, the anti-proliferative activity result in the data set on human dental pulp cells was “most anti-proliferative of all”. The “reduction of cell numbers” value in the data set on human dental pulp cells (5 μM, over 7 days) is “about 17%”.
For MKPLTGKVKEFNNI [SEQ ID NO: 9], the “increase in cell number” value in data set [4] (10 μg/ml of medium, 24 h, untreated control cells increased by 50%) is listed as “under 20%”. In data set [4] (with goat antibody and rat hypothalamus extract), the “effect of co-administration on the antibody's reduction of the negative influence” value is on record as “reversed by co-administration”. In addition, the “prolactin level in medium” value in the data set on ovine pituitary cells [6] (Experiment 1: 1 ng/well, 24 hours, n=4, control 92.2±13.9) came out at 67.1 ± 12.6 ng/mL. In addition, the “prolactin level in medium” value in the data set with ovine pituitary cells [6] (Experiment 2: 1 μg/ml, 2 hours, control 8.30±1.16, p<0.05) was 5.18 ± 1.52 ng/mL. Also, in the data set on ovine pituitary cells [7] (cells provided with GnRH, GHRH and TRH), the LH production result was “reduction in LH production”. Besides, the LH secretion result in the data set with ovine pituitary cells [7] (hypothalamic regulators omitted) was “increase the secretion of LH”. Besides, in the data set on Caenorhabditis elegans [1], the effect on lifespan result is on record as “increased by about a fifth” and the “increase in fecundity” value is on record as greater than 40%. For the same compound, the “effect on compensatory renal growth” value in data set [8] is reported as “inhibits compensatory renal growth”.
Consider “KLKMNGKN (SEQ ID NO: 29) to the N-terminus of IEPVFT: IEPVFT with KLKMNGKN added to its N-terminus (KLKMNGKNIEPVFT)”, for which the effect on fecundity result in the data set with Caenorhabditis elegans [9] is “anti-fecundity agent”.
